The values that follow come from US12138256B2, “Treatment of cardiopulmonary disorders” (Bayer Aktiengesellschaft, priority 2021, dated 2024).

The subject of assay [1] is thromboxane analog U46619 induced PAH in minipigs. The assay can be described thus: PAH minipig model: comparison with and on top of standard of care (bosentan, sildenafil, riociguat). It counts as in vivo, Göttingen minipig. The settings on record: for BP decrease % / PAP decrease %: % change per animal. The source says: Efficacy of inhaled comparative example 11 was compared with systemically applied bosentan, sildenafil and riociguat (see FIG. 53a) in the PAH minipig model. […] Therefore inhaled application of comparative example 11 offers clear benefits as systemic effects are avoided, compared to standard of care.

Assay [2] has as its system acetylcholine-induced bronchospasm. Put plainly: Bronchorelaxation in vivo: acetylcholine-induced bronchoconstriction in Brown Norway rats, RL and Cdyn (C-3.2). Set-up: species or system rat. The settings on record: inhaled 60 minutes before provocation; tiotropium 1 μg/kg; comparative example 11 1, 10 and 100 μg/kg. The protocol:
The bronchoconstriction model (see Hoymann H G. Lung function measurements in rodents in safety pharmacology studies. Front Pharmacol 2012; 3:156) used Male Brown Norway rats (Charles River, Sulzfeld, Germany; 10-12 weeks old) randomized to three treatment groups (comparative example 11, 1 μg/kg, 10 μg/kg, and 100 μg/kg; n=12-13), one positive control group (tiotropium 1 μg/kg; n=12), and one vehicle control group (n=17). Animals were treated with the inhaled test compounds 60 minutes before provocation. Comparative example 11, vehicle, or tiotropium were aerosolized using a micro feeding system and a dispersion nozzle operated with pressurized air. The aerosol concentration was determined by filter sampling with gravimetrical analysis and monitored continuously by a photometer. The lung-deposited doses were assessed from the inhalation dose (Raabe O G, Al-Bayati M A, Teague S V, Rasolt A. Regional Deposition of Inhaled Monodisperse Coarse and Fine Aerosol Particles in Small Laboratory Animals. The Annals of Occupational Hygiene 1988; 32:53-63.). […] After reaching a steady state in respiration, lung function of the spontaneously breathing animal was recorded as baseline values for ≥2 minutes; amongst other parameters, lung resistance (=RL) and dynamic compliance (=Cdyn) were used to assess bronchoconstriction. […]

The subject of assay [3] is allergen-induced late airway hyperresponsiveness and inflammation in sensitized mice. Put plainly: Chronic asthma model: ovalbumin sensitized BALB/c mice, airway hyperresponsiveness and BAL (C-3.3). The assay is classed as in vivo, mouse. Particulars: for inhibition at 0.1 mg/kg: Mus musculus, dexamethasone 18 h and 1 h before each Ova challenge, comparative example 11 high dose of 100 μg/kg 2 h before. The procedure: The study was conducted to investigate whether inhalative treatment with comparative example 11 has a protective effect on the experimentally allergen-induced late airway hyperresponsiveness and inflammation in sensitized mice. Female BALB/c mice were sensitized and boosted with Ovalbumin (Ova) and aluminium hydroxide adjuvant (day 0. 14 and 21) with the exception of the negative control group receiving NaCl. On day 28 and 29. the animals were challenged with Ova aerosol. On day 30, a hyperresponsiveness test followed by bronchoalveolar lavage (BAL) was performed in all animals of all groups. The treatment groups D (10 μg) and E (100 μg) were treated with comparative example 11 inhalationally 2 h before each Ova challenge. Group A and B, the positive and negative control groups, were treated correspondingly with the vehicle. The Ova-sensitized positive control group A should show the full allergic reaction and, in contrast, the sham-sensitized negative control group B should show no allergic response. As a reference group, the animals of group C were treated inhalative with the corticosteroid dexamethasone but—due to its different mechanism of action—18 h and 1 h before each Ova challenge (on day 27, 28 and 29). On day 30, 24 h after Ova challenge in the late allergic phase, lung function—especially RL—was measured in the orotracheally intubated mice and a test on airway hyperresponsiveness was performed (inhalational methacholine provocation in doubling dose steps). […] These inhibitory effects show the successful therapeutic intervention.

[4] abbreviates: 30 μg/kg inhaled on top of Bosentan 1 mg/kg.
Setting [5] is: 30 μg/kg inhaled on top of Riociguat 3 μg/kg/h.
Where [6] appears, read: 30 μg/kg inhaled on top of Sildenafil 300 μg/kg/h.
[7] abbreviates: 30 μg/kg nominal dose inhaled, alone.

Where “and” joins values, the source holds several entries; their conditions need not be identical. Identical values can stand only once. Like-named read-outs stand apart in the source and are kept apart here.

`O=C(O)c1ccc(CCN(CCc2ccccc2OCc2ccc(-c3ccc(C(F)(F)F)cc3)cc2Cl)[C@H]2CCCc3nc(C(=O)O)ccc32)cc1` [comparative example 11, (5S)-5-{[2-(4-carboxyphenyl)ethyl][2-(2-{[3-chloro-4′-(trifluoromethyl)[biphenyl]-4-yl]methoxy}phenyl)ethyl]amino}-5,6,7,8-tetrahydroquinoline-2-carboxylic acid]: the BP decrease % is −12.8% and 3.6% in assay [1] (setting [4]); 3.1% and −1.1% and 11.5% in assay [1] (setting [5]); −6.9% and −6.4% and 1.2% in assay [1] (setting [6]); −6.8% and 1.6% and 3.5% in assay [1] (setting [7]); −4.5% and −9.9% and −3.1% in assay [1] (100 μg/kg nominal dose inhaled). The PAP decrease % in assay [1] (setting [4]) is −29.7% and −27.1%; in assay [1] (setting [5]), −29.7% and −24.2% and −26.3%; in assay [1] (setting [6]), −33.6% and −36.9% and −42.8%; in assay [1] (setting [7]), −19.9% and −22.8% and −21.7%; in assay [1] (100 μg/kg nominal dose inhaled), −33.1% and −45.1% and −38.2%. In addition, the “efficacy regarding PAP on top of bosentan, sildenafil or riociguat” value in assay [1] (comparative example 11 30 μg/kg inhaled) is recorded as “maintained its efficacy regarding PAP”. Moreover, the “bronchodilatory efficacy (RL)” value in assay [2] is “dose-dependent significant (1, 10 and 100 μg/kg) bronchodilating effect”. Besides, the inhibition at 0.1 mg/kg in assay [3] (read-out: inhibition of the airway hyperresponsiveness (ED100)) was 38%; in assay [3] (read-out: inhibition of the airway hyperresponsiveness (ED150)), 32%. The entries for the “inhibition of the eosinophilic influx” value in assay [3] (high dose group (100 μg)) and in assay [3] (low dose group (10 μg)) were 31% and 19%, respectively. The “effect on airway hyperresponsiveness” value in assay [3] (low dose (10 μg)) was “no or only marginal effects”.
